Test results taken from ChEMBL document CHEMBL1201862, “PubChem BioAssay data set” (2004).
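Cultured in 96-well plates, cells were exposed to test compound for 48 hours across five concentrations. GI50 marks 50% less growth.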 Active and inactive are the calls of the source. Cut-off read from the data, not from the text of the source: active = GI50 up to about 1.1 µM and inactive = higher.

Legend:
Experiment in all cases: NCI-60 cell line screen, 48 h
MDA-MB-231 = test system: MDA-MB-231
COLO 205 = test system: COLO 205
OVCAR-4 = test system: OVCAR-4
CCRF-CEM = test system: CCRF-CEM
Malme-3M = test system: Malme-3M
RXF 393 = test system: RXF 393
786-0 = test system: 786-0
SNB-75 = test system: SNB-75
K562 = test system: K562
M14 = test system: M14
UO-31 = test system: UO-31
MCF7 = test system: MCF7
NCI-H522 = test system: NCI-H522
TK-10 = test system: TK-10
MDA-MB-435 = test system: MDA-MB-435
A549 = test system: A549
RPMI-8226 = test system: RPMI-8226
KM12 = test system: KM12
SK-MEL-2 = test system: SK-MEL-2
SF-539 = test system: SF-539

Row | SMILES | GI50 (MDA-MB-231) | GI50 (COLO 205) | GI50 (OVCAR-4) | GI50 (CCRF-CEM) | GI50 (Malme-3M) | GI50 (RXF 393) | GI50 (786-0) | GI50 (SNB-75) | GI50 (K562) | GI50 (M14) | GI50 (UO-31) | GI50 (MCF7) | GI50 (NCI-H522) | GI50 (TK-10) | GI50 (MDA-MB-435) | GI50 (A549) | GI50 (RPMI-8226) | GI50 (KM12) | GI50 (SK-MEL-2) | GI50 (SF-539)
1 | Cc1ccc(CC(Cc2ccccc2C)C(=O)O)c(C(=O)O)c1 (stereo not given) | > 100 µM (inactive) | > 100 µM (inactive) | > 100 µM (inactive) | > 100 µM (inactive) | > 100 µM (inactive) | > 100 µM (inactive) | > 100 µM (inactive) | > 100 µM (inactive) | > 100 µM (inactive) | > 100 µM (inactive) | > 100 µM (inactive) | > 100 µM (inactive) | > 100 µM (inactive) | > 100 µM (inactive) | > 100 µM (inactive) | > 100 µM (inactive) | > 100 µM (inactive) | > 100 µM (inactive) | > 100 µM (inactive) | > 100 µM (inactive)
2 | C=C1C(=O)C2=CC1CCC(=O)C1(C)CCC(OC(C)=O)C(C)(C)C1CC2O (stereo not given) | 4.65 µM (inactive) | 0.771 µM (active) | 2.17 µM (inactive) | 0.392 µM (active) | 2.37 µM (inactive) | 2.23 µM (inactive) | 3.01 µM (inactive) | 8.32 µM (inactive) | 0.352 µM (active) | 2.64 µM (inactive) | 2.06 µM (inactive) | 0.798 µM (active) | 0.522 µM (active) | 5.86 µM (inactive) | 3.24 µM (inactive) | 4.38 µM (inactive) | 2.53 µM (inactive) | 3.31 µM (inactive) | 5 µM (inactive) | 2.1 µM (inactive)
3 | O=C(NCCCNCCCCNCCCNC(=O)c1cc(-c2ccccc2)nc2ccccc12)c1cc(-c2ccccc2)nc2ccccc12 | 7.06 µM (inactive) | 1.91 µM (inactive) | 2.64 µM (inactive) | 1.88 µM (inactive) | 1.95 µM (inactive) | 3.69 µM (inactive) | 1.69 µM (inactive) | 1.85 µM (inactive) | 2.14 µM (inactive) | 2.15 µM (inactive) | 20.9 µM (inactive) | 2.1 µM (inactive) | 2.01 µM (inactive) | 8.07 µM (inactive) | 1.8 µM (inactive) | 2.12 µM (inactive) | 2.16 µM (inactive) | 2.19 µM (inactive) | 1.62 µM (inactive) | 1.9 µM (inactive)
4 | CC12CC(=O)C3C(C(=O)C1)C32C (stereo not given) | > 100 µM (inactive) | > 100 µM (inactive) | > 100 µM (inactive) | > 100 µM (inactive) | 20.5 µM (inactive) | > 100 µM (inactive) | > 100 µM (inactive) | 45.3 µM (inactive) | > 100 µM (inactive) | > 100 µM (inactive) | > 100 µM (inactive) | > 100 µM (inactive) | > 100 µM (inactive) | > 100 µM (inactive) | > 100 µM (inactive) | > 100 µM (inactive) | > 100 µM (inactive) | 0.488 µM (active) | > 100 µM (inactive) | > 100 µM (inactive)
5 | N#Cc1c(N)c2c(c(-c3ccccc3)c1-c1ccccc1)C(=O)N(O)C2=O | > 100 µM (inactive) | 20.2 µM (inactive) | 66.8 µM (inactive) | 29.8 µM (inactive) | > 100 µM (inactive) | 10.5 µM (inactive) | 47.1 µM (inactive) | 34 µM (inactive) | 91.8 µM (inactive) | > 100 µM (inactive) | 37 µM (inactive) | 46.1 µM (inactive) | 56.2 µM (inactive) | 91.4 µM (inactive) | 79.4 µM (inactive) | 31 µM (inactive) | 42.4 µM (inactive) | 29.6 µM (inactive) | 41 µM (inactive) | 66.5 µM (inactive)
6 | Cc1ccc(-c2c(C#N)c(S)n(NS(=O)(=O)c3ccc(C)cc3)c(=O)c2C#N)cc1 | 29.6 µM (inactive) | 30 µM (inactive) | 15.5 µM (inactive) | 8.02 µM (inactive) | 3.56 µM (inactive) | 23.5 µM (inactive) | 29 µM (inactive) | 14.3 µM (inactive) | 35.8 µM (inactive) | 31.3 µM (inactive) | 17.5 µM (inactive) | 31.6 µM (inactive) | 19.1 µM (inactive) | 19.8 µM (inactive) | 22.3 µM (inactive) | 39.2 µM (inactive) | 24.7 µM (inactive) | 18 µM (inactive) | 23.3 µM (inactive) | 20.3 µM (inactive)
